Assay results as given in PubChem BioAssay AID248 (DTP/NCI, 2004).
“And” between values parts separate entries of the source, which are not always exact repeats. Identical values can stand only once. Inconclusive results and toxic doses are left out. No stated cut-off is given here; in the data, active means T/C of 150% or more; inactive means T/C below 125%.

Test system: L1210 leukemia ip in BDF1 mice, survival T/C
Experiment: NCI In Vivo Anticancer Drug Screen. Data for tumor model L1210 Leukemia (intraperitoneal) in B6D2F1 (BDF1) mice
Settings: endpoint: mean survival time, higher = longer survival
In short: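 Ratio derived from survival: compound-dosed mice over vehicle-dosed mice, all bearing a transplantable tumor.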

[1] = dose: 100.0 mg/kg/injection, schedule: Q01DX001 (ip), vehicle: other
[2] = dose: 200.0 mg/kg/injection, schedule: Q01DX001 (ip), vehicle: other
[3] = dose: 400.0 mg/kg/injection, schedule: Q01DX001 (ip), vehicle: other
[4] = dose: 100.0 mg/kg/injection, schedule: Q04DX003 (ip), vehicle: saline
[5] = dose: 200.0 mg/kg/injection, schedule: Q04DX003 (ip), vehicle: saline
[6] = dose: 100.0 mg/kg/injection, schedule: Q01DX001 (ip), vehicle: saline
[7] = dose: 200.0 mg/kg/injection, schedule: Q01DX001 (ip), vehicle: saline
[8] = dose: 100.0 mg/kg/injection, schedule: Q04DX003 (ip), vehicle: saline with Tween-80
[9] = dose: 100.0 mg/kg/injection, schedule: Q01DX009 (ip), vehicle: saline with Tween-80
[10] = dose: 200.0 mg/kg/injection, schedule: Q01DX009 (ip), vehicle: saline with Tween-80
[11] = dose: 200.0 mg/kg/injection, schedule: Q04DX003 (ip), vehicle: saline with Tween-80
[12] = dose: 400.0 mg/kg/injection, schedule: Q04DX003 (ip), vehicle: saline with Tween-80
[13] = dose: 100.0 mg/kg/injection, schedule: Q01DX009 (ip), vehicle: Klucel (hydroxypropylcellulose) (HPC)
[14] = dose: 100.0 mg/kg/injection, schedule: Q04DX003 (ip), vehicle: Klucel (hydroxypropylcellulose) (HPC)
[15] = dose: 200.0 mg/kg/injection, schedule: Q01DX009 (ip), vehicle: Klucel (hydroxypropylcellulose) (HPC)
[16] = dose: 200.0 mg/kg/injection, schedule: Q04DX003 (ip), vehicle: Klucel (hydroxypropylcellulose) (HPC)
[17] = dose: 400.0 mg/kg/injection, schedule: Q01DX009 (ip), vehicle: Klucel (hydroxypropylcellulose) (HPC)
[18] = dose: 400.0 mg/kg/injection, schedule: Q01DX009 (ip), vehicle: saline with Tween-80
[19] = dose: 100.0 mg/kg/injection, schedule: Q04DX002 (ip), vehicle: Klucel (hydroxypropylcellulose) (HPC)
[20] = dose: 200.0 mg/kg/injection, schedule: Q04DX002 (ip), vehicle: Klucel (hydroxypropylcellulose) (HPC)
[21] = dose: 50.0 mg/kg/injection, schedule: Q01DX001 (ip), vehicle: saline
[22] = dose: 400.0 mg/kg/injection, schedule: Q01DX001 (ip), vehicle: saline

Measured: T/C

CCCCOC(=O)c1cccc2c1-c1ccccc1C2=O
inactive: [1] 86 % of control | [2] 93 % of control | [3] 91 % of control

Cn1cnc2c([N+](C)(C)C)ncnc21
inactive: dose: 11.0 mg/kg/injection, schedule: Q04DX003 (ip), vehicle: saline 100 % of control | dose: 22.0 mg/kg/injection, schedule: Q04DX003 (ip), vehicle: saline 104 % of control | dose: 44.0 mg/kg/injection, schedule: Q04DX003 (ip), vehicle: saline 98 % of control | dose: 90.0 mg/kg/injection, schedule: Q04DX003 (ip), vehicle: saline 100 % of control | [4] 95 % of control and 101 % of control | [5] 104 % of control

CCOC(=S)SC/C=C/CSC(=S)OCC
inactive: dose: 100.0 mg/kg/injection, schedule: Q04DX002 (ip), vehicle: saline with Tween-80 97 % of control | dose: 200.0 mg/kg/injection, schedule: Q04DX002 (ip), vehicle: saline with Tween-80 103 % of control | dose: 400.0 mg/kg/injection, schedule: Q04DX002 (ip), vehicle: saline with Tween-80 107 % of control

O=C(C[n+]1cccc(C(=O)Nc2ccccc2)c1)Nc1ccc(Cl)cc1
inactive: dose: 50.0 mg/kg/injection, schedule: Q04DX003 (ip), vehicle: saline 98 % of control | [6] 96 % of control | [4] 102 % of control | [7] 89 % of control | [5] 98 % of control

NNc1nnc(Cl)cc1N
inactive: dose: 25.0 mg/kg/injection, schedule: Q04DX003 (ip), vehicle: saline with Tween-80 102 % of control | dose: 50.0 mg/kg/injection, schedule: Q04DX003 (ip), vehicle: saline with Tween-80 104 % of control | [8] 113 % of control

CC(/C=C/c1ccc(O)cc1)=N\O
inactive: [9] 89 % of control | [10] 100 % of control

O=C(O)c1ccc(OCC(=O)c2ccccc2)cc1
inactive: [9] 98 % of control | [10] 89 % of control

CC(Oc1ccc(Br)cc1Br)C(=O)O (stereo unspecified)
inactive: [8] 93 % of control | [11] 93 % of control | [12] 95 % of control

Nc1ccc(C(=O)Oc2ccc([N+](=O)[O-])cc2)c(O)c1
inactive: [13] 95 % of control | [14] 100 % of control | [15] 97 % of control | [16] 88 % of control | [17] 87 % of control | dose: 400.0 mg/kg/injection, schedule: Q04DX003 (ip), vehicle: Klucel (hydroxypropylcellulose) (HPC) 96 % of control

O=[N+]([O-])c1ccc(SNc2ccc(NSc3ccc([N+](=O)[O-])cc3)cc2)cc1
inactive: dose: 25.0 mg/kg/injection, schedule: Q01DX001 (ip), vehicle: saline with Tween-80 96 % of control | dose: 50.0 mg/kg/injection, schedule: Q01DX001 (ip), vehicle: saline with Tween-80 100 % of control

COc1ccc(/C=N/NC(=O)c2ccc(Cl)c(Cl)c2)cc1
inactive: [13] 91 % of control | [15] 100 % of control | [17] 90 % of control

CC(C)(N)CNCC(C)(C)N
inactive: [6] 97 % of control | [7] 111 % of control

N#Cc1ccccc1COCc1ccccc1
inactive: [13] 102 % of control | [15] 98 % of control | [17] 95 % of control

CCOC(=O)c1cn(C2OC(COC(C)=O)C(OC(C)=O)C2OC(C)=O)c2nc(SC)nc(NC(C)=O)c2c1=O (stereo unspecified)
inactive: dose: 100.0 mg/kg/injection, schedule: Q01DX005 (ip), vehicle: saline 97 % of control | dose: 200.0 mg/kg/injection, schedule: Q01DX005 (ip), vehicle: saline 91 % of control

CC1=CS(=O)(=O)CC(=O)N1
inactive: [9] 101 % of control | [10] 100 % of control | [18] 97 % of control

CCOc1ccc2nc(C)cc(C)c2c1
inactive: [19] 98 % of control | [20] 112 % of control

COc1ccc(C(=O)N(N)C2CCCCC2)cc1
inactive: [8] 93 % of control | [11] 102 % of control

Cc1ccc([N+](=O)[O-])cc1[I+]c1ccccc1C(=O)[O-]
inactive: [21] 103 % of control | [6] 106 % of control | [7] 91 % of control | [22] 101 % of control

O=c1oc2ccc(N=Cc3ccc4c(c3)OCO4)cc2c2ccccc12
inactive: [1] 91 % of control | [2] 93 % of control | [3] 93 % of control

O=C1C2CC=CCC2C(=O)C2CC=CCC12 (stereo unspecified)
inactive: [9] 99 % of control | [10] 93 % of control | [18] 90 % of control

CCCCNC(=S)NNC(=O)c1ccncc1
inactive: [19] 107 % of control | [20] 95 % of control and 105 % of control | dose: 400.0 mg/kg/injection, schedule: Q04DX002 (ip), vehicle: Klucel (hydroxypropylcellulose) (HPC) 96 % of control and 98 % of control

O=C(O)CC(NCc1ccccc1)C(=O)O (stereo unspecified)
inactive: [9] 93 % of control | [10] 91 % of control | [18] 93 % of control

O=C(/C=C/c1cccc(Cl)c1)c1ccc(Cl)cc1
inactive: dose: 25.0 mg/kg/injection, schedule: Q01DX009 (ip), vehicle: saline with Tween-80 95 % of control and 96 % of control | dose: 25.0 mg/kg/injection, schedule: Q04DX003 (ip), vehicle: carboxymethylcellulose (CMC) 95 % of control and 103 % of control | dose: 50.0 mg/kg/injection, schedule: Q01DX009 (ip), vehicle: saline with Tween-80 93 % of control and 95 % of control | dose: 50.0 mg/kg/injection, schedule: Q04DX003 (ip), vehicle: carboxymethylcellulose (CMC) 105 % of control and 89 % of control | dose: 100.0 mg/kg/injection, schedule: Q01DX001 (ip), vehicle: carboxymethylcellulose (CMC) 94 % of control | dose: 100.0 mg/kg/injection, schedule: Q01DX009 (ip), vehicle: carboxymethylcellulose (CMC) 86 % of control | [9] 92 % of control and 91 % of control | dose: 100.0 mg/kg/injection, schedule: Q04DX002 (ip), vehicle: carboxymethylcellulose (CMC) 92 % of control and 100 % of control | dose: 200.0 mg/kg/injection, schedule: Q01DX001 (ip), vehicle: carboxymethylcellulose (CMC) 92 % of control | dose: 200.0 mg/kg/injection, schedule: Q01DX009 (ip), vehicle: carboxymethylcellulose (CMC) 90 % of control | dose: 200.0 mg/kg/injection, schedule: Q04DX002 (ip), vehicle: carboxymethylcellulose (CMC) 100 % of control and 107 % of control | dose: 200.0 mg/kg/injection, schedule: Q04DX003 (ip), vehicle: carboxymethylcellulose (CMC) 96 % of control | dose: 400.0 mg/kg/injection, schedule: Q01DX001 (ip), vehicle: carboxymethylcellulose (CMC) 92 % of control | dose: 400.0 mg/kg/injection, schedule: Q04DX002 (ip), vehicle: carboxymethylcellulose (CMC) 100 % of control and 102 % of control | dose: 400.0 mg/kg/injection, schedule: Q04DX003 (ip), vehicle: carboxymethylcellulose (CMC) 91 % of control

S=C(NCCCN1Cc2ccccc2C1)Nc1ccccc1
inactive: [6] 96 % of control | [7] 104 % of control | [22] 96 % of control

Cc1cc2nc(CN)[nH]c2cc1C
inactive: dose: 50.0 mg/kg/injection, schedule: Q01DX009 (ip), vehicle: saline 98 % of control | dose: 100.0 mg/kg/injection, schedule: Q01DX009 (ip), vehicle: saline 98 % of control | dose: 200.0 mg/kg/injection, schedule: Q01DX009 (ip), vehicle: saline 93 % of control

C(=C\c1nc2ccccc2[nH]1)/c1nc2ccccc2[nH]1
inactive: [21] 108 % of control | [6] 96 % of control | [7] 96 % of control | [22] 106 % of control

NNc1n[nH]c(=O)n1N
inactive: [14] 113 % of control | [16] 100 % of control

c1ccc(CCCC2CCCC2)cc1
inactive: dose: 75.0 mg/kg/injection, schedule: Q01DX001 (ip), vehicle: saline 94 % of control | dose: 75.0 mg/kg/injection, schedule: Q01DX009 (ip), vehicle: saline 106 % of control | dose: 150.0 mg/kg/injection, schedule: Q01DX001 (ip), vehicle: saline 96 % of control | dose: 150.0 mg/kg/injection, schedule: Q01DX009 (ip), vehicle: saline 108 % of control | dose: 300.0 mg/kg/injection, schedule: Q01DX001 (ip), vehicle: saline 97 % of control | dose: 300.0 mg/kg/injection, schedule: Q01DX009 (ip), vehicle: saline 106 % of control

COC(CCCl)c1ccccc1 (stereo unspecified)
inactive: [9] 101 % of control | [8] 100 % of control | [10] 100 % of control | [11] 96 % of control | [12] 91 % of control
